We go through 33 compounds from a melting point compilation (Tetko et al.; mined from patent text by program, amines drawn as free bases though some values may be those of a salt).

SMILES strings stand for the structures.

Usually melting point stands for the temperature of the solid-liquid transition. The compound `CCCCCCCC1CC(C(=O)O)C(=O)O1` (stereo not drawn) came in with a melting point of 51 to 54 °C.

Regarding `C=CCn1c2c(c3cc(OCc4ccc5ccccc5n4)ccc31)CCCC2CC(=O)O` (stereo not drawn), the melting point was 150 °C.

Compound `Cc1cc(C)c(/C=C2\C(=O)N(COC(=O)CCC(=O)O)c3ccccc32)[nH]1` registered a melting point of 160 to 163 °C.

For `CCn1ncc2c1ncc1c(Nc3cccc(C(F)(F)F)c3)nc3cc(C)nn3c12`, the melting point is 205 to 206 °C.

The compound `Cn1cnc(COc2nn3c(-c4ccccc4)nnc3cc2-c2ccoc2)n1` displayed a melting point of 241 °C.

The compound `Cc1ccc2c(c1)SC(c1ccc(OCCCCCBr)cc1)C(=O)N2C` (stereo not drawn) registered a melting point of 81 to 82 °C.

In turn, `Clc1ccc(Nc2nnc(Cl)c3sccc23)cc1` came in with a melting point of 139 to 142 °C.

`CCOC(=O)CCC12CCC(=O)N1C(=O)CC2` gave a melting point of 104 to 105 °C.

Compound `COc1cc(COc2nn(C)cc2C(=O)N(C)OC)ccc1OCc1nc(-c2ccccc2)oc1C` showed a melting point of 138 to 139 °C.

In turn, `N#Cc1ccc2c(c1)ncn2-c1cccc(-c2cccnc2)c1` showed a melting point of 191 to 193 °C.

`CC(C)(C)C(F)(F)c1ccc(C[C@H](N)[C@H](O)c2cccc(Cl)c2)cc1` (racemic): the melting point lay in the range of 105 to 107 °C.

`CC(C)(C)c1cc(SC2CC(=O)N(c3ccccc3)C2=O)cc(C(C)(C)C)c1O` (stereo not drawn) registered a melting point of 134 to 137 °C.

As to `Cc1cc(C2=NOC(c3cc(Cl)cc(Cl)c3)(C(F)(F)F)O2)ccc1C(=O)O` (stereo not drawn), the melting point lay in the range of 114 to 134 °C.

`OCc1ccc(Cn2c(CC3CCN(CCNc4ccc(Cl)nn4)CC3)nc3ccccc32)o1`: the melting point turned out to be 188 °C.

For the compound `COc1ccccc1OCC1(COc2ccccc2OC)NC(C(=O)O)CS1` (stereo not drawn), the melting point lay in the range of 160 to 162 °C.

As to `COc1cc(C(C)C)c2c(c1)S(=O)(=O)N(COC(=O)c1cccs1)C2=O`, the melting point lay in the range of 139 to 141 °C.

Take `c1ccc(CN2CCC(CCc3noc4cc(N5CCOCC5)ccc34)CC2)cc1`: the melting point fell in the range of 129 to 130 °C.

In turn, `COc1ccc2c(c1)CCc1c-2n(-c2ccc(O[Si](C)(C)C(C)(C)C)cc2)c(=O)c2cc(OC)ccc12` had a melting point of 194 to 195 °C.

Turning to `S=c1c2ccc(Cl)cc2nc2n1CCCCC2`, the melting point is 99 to 101 °C.

`CCCOC(=O)c1sc(C(=O)OCCC)c(OS(=O)(=O)c2ccc(Br)cc2)c1C` had a melting point of 73 to 74 °C.

Turning to `COc1ccc(CC(CCCC(C#N)(c2ccc(OC)c(OC)c2)C(C)C)[N+](=O)[O-])cc1OC` (stereo not drawn), the melting point fell in the range of 107 to 110 °C.

`CC1CC(=O)NN=C1c1ccc2c(c1)Oc1c[nH]nc1N2` (stereo not drawn) registered a melting point of 304 to 306 °C.

The compound `CCOC(=O)CC(=O)Nc1sc(CC)cc1C(=O)c1ccccc1Cl` came in with a melting point of 56 to 57 °C.

The compound `NC(=S)c1ncn2c1[C@@H]1CCN1C(=O)c1ccccc1-2` came in with a melting point of 227 to 230 °C.

In the case of `CC(n1cncn1)C(O)(Cn1cncn1)c1ccc(F)cc1F` (stereo not drawn), the melting point fell in the range of 115 to 116 °C.

The compound `O=P(O)(O)C(O)C(O)P(=O)(O)O` (stereo not drawn) yielded a melting point of 209 to 211 °C.

`N#Cc1ccc2c(c1)C(c1ccccc1F)=NCC(OP(=O)(N1CCOCC1)N1CCOCC1)=N2` yielded a melting point of 194 to 197 °C.

Compound `C#CCOc1cc(C(=O)O)cc([N+](=O)[O-])c1-c1ccccc1` registered a melting point of 145 to 147 °C.

In the case of `CN(c1nnc(C(F)(F)F)s1)C1CCN(Cc2cccc(F)c2)CC1`, the melting point was determined as 80.5 °C.

`COC(O)c1ccc2c(c1)C(C(Cl)(Cl)Cl)OC(C(Cl)(Cl)Cl)O2` (stereo not drawn) came in with a melting point of 123 to 125 °C.

Take `O=c1nc(-c2cccc(S(=O)CCc3ccccc3)n2)sc2ccccc12` (stereo not drawn): the melting point fell in the range of 164 to 166 °C.

The compound `CC(=O)OCC1OC(n2cc(Cc3ccc4occc4c3)c3c(Cl)cccc32)C(OC(C)=O)C(OC(C)=O)C1OC(C)=O` (stereo not drawn) had a melting point of 186 to 188 °C.

As to `Cn1nnnc1CC(O)(c1ccccc1)c1ccccc1`, the melting point lay in the range of 175 to 176 °C.
